The values below come from patent US9491935B2, “Animal models of neurological disorders” (Ann & Robert H. Lurie Children's Hospital of Chicago, priority 2009, dated 2016).

The conditions of assay [1]: administered 3 hours prior to cocaine; cited from earlier work.
A further assay has as its system CA1 pyramidal neurons. As to the kind of experiment: IPSC recordings in CA1 pyramidal cells of hippocampal slices. Format: cell-based, mouse. Conditions: 0.25 mM in recording ACSF; for spontaneous IPSCs (sIPSCs, mIPSCs): Evf2TS/TS and wild-type mice; for evoked IPSCs: wild-type and Evf2TS/TS mice. As for the experimental part: Transverse hippocampal slices ([…]) were prepared from 3-5-month-old Evf2^TS/TS mice. Slices were cut in ice-cold (˜4° C.) oxygenated ACSF and then were allowed to recover for 1-2 h before being transferred to the recording chamber where they were continuously superfused with solution heated to 32-34° C. and saturated with 95% O2/5% CO2. The standard extracellular solution contained 124 mM NaCl, 3 mM KCl, 1.25 mM KH2PO4, 2.0 mM CaCl2, 1.3 mM MgCl2, 26 mM NaHCO3 and 10 mM glucose. The concentration of MgCl2 was raised to 2.0 mM and that of CaCl2 decreased to 1.4 mM in the slicing solution. […].
Somatic whole-cell recordings were obtained from CA1 pyramidal neurons under visual guidance using infrared differential interference contrast microscopy. Patch pipettes were pulled from borosilicate glass capillary tubing (A-M Systems). Internal solution for the patch pipettes contained 120 mM cesium methane sulphonate, 10 mM CsCl, 5 mM NaCl, 10 mM HEPES, 10 mM EGTA, 5 mM TEA-Cl, 4 mM Mg-ATP, 0.3 mM GTP and 5 mM QX-314 (pH 7.3-7.4), adjusted with CsOH, osmolarity 290±10 mOsm.
Voltage-clamp recordings were performed using Axopatch-200B (Axon Instruments). In all of our recordings, series resistance was <22 MΩ and was compensated at 80%. The recorded signal was low-pass filtered at 5 kHz and digitized at 10 kHz with a PCI-MIO-16E-4 board (National Instruments). All data were stored on a PC computer with custom software using C++ Builder 5.0 (Borland) and a NI DAQ 6.5 driver (National Instruments).
Evoked IPSCs were elicited at 0.1-0.07 Hz with a bipolar Pt/Ir electrode (2×25 μn) positioned on the stratum radiatum within 150 μm of the cell being recorded (Schaffer collateral-commisural fibers location site). At the beginning of each experiment, stimulus intensity was adjusted to evoke […] with amplitude of 0.4-0.2 nA. Evoked IPSCs were recorded at holding potential from −70 mV to +20 mV with 10-mV voltage steps after blocking EPSCs with a solution containing CNQX and D-AP5.
Spontaneous IPSCs were analyzed using MiniAnalysis 6.0.3 software (Synaptosoft). All events were manually selected on the basis of their kinetics. Between 250 and 450 individual events were analyzed for each cell. Post-recording analyses of evoked IPSPs were carried out using Clampfit 10 (Axon Instruments). All statistical values were evaluated with Origin 8 (MicroCal Software). Values are presented as mean±s.e.m. Statistical differences were established at P<0.05 using the Student t test, unless otherwise indicated.

With `C=CC(N)CCC(=O)O` (centres unmarked) [GVG], the “locomotor response to cocaine” value in assay [1] is “can attenuate locomotor response”.

Take Picrotoxin: in the assay on CA1 pyramidal neurons, the “spontaneous IPSCs (sIPSCs, mIPSCs)” value is “blocked all IPSC activity” and the “evoked IPSCs” value is on record as “blocked evoked IPSCs”. Besides, in the assay with CA1 pyramidal neurons (listed as picrotoxin), the “spontaneous IPSCs (sIPSCs, mIPSCs)” value is “abolished” and the “evoked IPSCs” value is on record as “abolished”.
